Patent US11555031B2, “Compounds and methods for regulating insulin secretion” (The Broad Institute, Inc., priority 2017, dated 2023)
Entries after “also recorded” stand apart in the source; their conditions may differ.

How the values were obtained:
[1] = test system: dissociated human islets; test: Insulin secretion from dissociated human islets, insulin ELISA; format: cell-based
Experimental: Forskolin is included as a positive control.
Human islets were obtained through the Integrated Islet Distribution Program. Islets were maintained and dissociated in 96-well format as described (Walpita et al., J Biomol Screen 17: 509-518 2012). To test compounds for their effects on insulin secretion, the dissociated islets were washed gently in KRB and preincubated for 1 hr at 37° C. in KRB with 2.8 mM glucose. The cells were then washed twice with zero-glucose KRB and placed in 100 μl of fresh KRB with varied glucose concentrations plus compounds. After a 1 hr incubation at 37° C., the supernatant was removed, and insulin concentration was measured by ELISA (Mercodia) according to the manufacturer's instructions.

[2] = test system: IP-1; test: IP-1 secondary messenger level in treated cells; format: cell-based; settings: treated cells (data not shown)
From the text: Further investigation into Compound 8 included measuring levels of the secondary messengers cAMP (FIG. 9) and IP-1 (not shown) in treated cells, as compounds that increase these secondary messengers are known to augment insulin secretion, though often in ways that are not beta-cell specific.

[3] = test system: alpha-TC-1-6; test: Luminescent glucagon secretion assay in alpha-cell line; format: cell-based; settings: compared with DMSO negative control
Experimental: FIG. 10 depicts the quantification of α-cell secretory activity in cells treated with DMSO, KCl, or Compound 8, using a luminescent assay for glucagon secretion.
To investigate the cell-type specificity of the compound, and to exclude the possibility that Compound 8 acts as a generic secretagogue, the compound was tested on secretion from a rodent alpha-cell line, “alpha-TC-1-6,” using a luciferase reporter for glucagon secretion that mirrors the insulin secretion assay (FIG. 10).

[4] = target: T1, pancreatic glucokinase (Homo sapiens, UniProt P35557); test: Glucokinase activation assay (ATP level); format: biochemical; settings: ATP level readout; GK-A positive control
T1 sequence (P35557 1-465): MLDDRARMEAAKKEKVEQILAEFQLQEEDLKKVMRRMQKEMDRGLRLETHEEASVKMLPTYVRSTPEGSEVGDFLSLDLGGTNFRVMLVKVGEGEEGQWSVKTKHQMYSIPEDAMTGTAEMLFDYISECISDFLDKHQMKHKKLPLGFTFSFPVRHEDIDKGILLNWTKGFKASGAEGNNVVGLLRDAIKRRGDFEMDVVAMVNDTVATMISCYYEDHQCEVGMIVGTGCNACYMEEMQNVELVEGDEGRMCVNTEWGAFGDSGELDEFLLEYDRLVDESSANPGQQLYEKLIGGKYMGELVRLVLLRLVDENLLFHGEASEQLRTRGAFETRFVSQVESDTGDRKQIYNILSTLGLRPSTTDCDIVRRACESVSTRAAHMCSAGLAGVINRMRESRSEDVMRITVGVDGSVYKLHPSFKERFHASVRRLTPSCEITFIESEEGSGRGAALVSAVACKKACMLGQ
From the text: FIG. 11 depicts the lack of effect of Compound 8 on glucokinase activity in cells treated with the indicated compounds. The assay is based on the measurement of ATP level. In presence of GK we observe a reduction of level of ATP with respect to the negative control (DMSO).
To rule out the possibility of Compound 8 acting as a glucokinase agonist, another well-established mechanism of augmenting insulin secretion, the compound was subjected to a glucokinase activation assay (FIG. 11).

[5] = Microsome t1/2, human; format: in vitro ADME; settings: Human microsomes
Experimental: (§1) The pharmacokinetic activity profile of Compound 8 was assessed by various standard in vitro measurements. Measurements were performed on human, mouse (CD-1) and rat (SD) microsomes to determine the t1/2, the plasma protein binding (“PPB”) and the plasma stability (“PS”).

[6] = Microsome t1/2, rat; format: in vitro ADME; settings: Rat (SD) microsomes
Experimental: as §1

[7] = Plasma stability, human; format: in vitro ADME
Experimental: (§2) Measurements were performed on human, mouse (CD-1) and rat (SD) microsomes to determine the t1/2, the plasma protein binding (“PPB”) and the plasma stability (“PS”).

[8] = Plasma stability, rat; format: in vitro ADME
Experimental: as §2

[9] = test system: Mouse MING insulinoma cells; test: Calcium influx assay (Fluo-4, FLIPR Tetra); format: cell-based
Experimental: Mouse MING insulinoma cells were cultured in DMEM medium supplemented with 10% FBS, 100 U/mL penicillin, 100 μg/mL streptomycin, and 55 μM β-mercaptoethanol. Two days prior to the experiment, cells were seeded in 384-well clear-bottom microplates at 17,500 cells/well. For calcium imaging, microplates were washed three times with Hanks' Balanced Salt Solution (HBSS, containing Ca^2+/Mg^2+) using the CyBio Well vario plate washer. Cells were loaded with 2 μM of the calcium indicator Fluo-4 for 1 hour at 37° C. in Krebs-Ringer buffer (KRB) with 3 g/L glucose. After dye loading, the cells were washed again with HBSS and incubated in KRB with 0.5 g/L glucose for 30 minutes at 37° C. (glucose starvation conditions). After glucose starvation, microplates were transferred to FLIPR Tetra, where an automated 384-well dispensing unit added glucose (glucose stimulation conditions) together with Compound 8. Positive control measurements (“+CNT”) were performed in wells with ionomycin to prompt calcium influx without the presence of glucose. Negative control measurements (“−CNT”) were also performed in wells with Compound 8 present in and without glucose. All wells were read simultaneously at 1 Hz intervals. FIG. 20 illustrates the fold increase of measured calcium over baseline measurements performed in the absence of glucose. […] Without wishing to be bound by theory, it is believed that insulin secretagogues acts between KATP channels stimulated by glucose, and the calcium channels that induce insulin secretion.

half-life [5]: 19.3 h
half-life [6]: 3.62 h
PS [7]: 106.2 % remaining
PS [8]: 97.5 % remaining
Structure (SMILES): Cc1cccc(NC(=O)c2ccc(OCc3c(C)noc3C)cc2)c1C [Compound 8]
insulin secretion, human islets from nondiabetic donors ([1]; normal donors): significant increase in glucose-dependent insulin secretion; also recorded: dose-dependent effect
insulin secretion, human islets from type 2 diabetic donors ([1]; type 2 diabetes donors): significant increase in glucose-dependent insulin secretion; also recorded: increases insulin secretion
IP-1 level [2]: did not increase levels
alpha-cell secretory activity (luciferase reporter for glucagon secretion) [3]: not to augment luciferase secretion; also recorded: insignificant change from DMSO negative control
glucokinase activation [4]: did not show any significant activation effect; also recorded: no change in assay signal
calcium influx in β-cells in the presence of glucose ([9]; glucose stimulation conditions (16.7 mM glucose), 1 μM, 10 μM): does promote calcium influx
dose dependence of calcium influx in beta cells ([9]; only in the presence of glucose): dose dependent response
calcium influx in β-cells in the absence of glucose ([9]; without glucose): does not invoke a calcium influx
